Series [1] in a line: Crystal size distribution of prednisolone crystals from CXF by Jorin ViPA. It is filed as physicochemical. To be noted: 10 μm pores. The procedure: 8 g of Prednisolone was dissolved in 200 ml of ethanol in a beaker at 55° C. to make up the organic phase. 0.5% PVA (Mowiol 23-88) in DI water was used as the aqueous phase.
The CXF was configured with a membrane with 10 μm pores, spaced 200 μm apart in a square grid. A 9.5 mm insert was used. The materials were pumped using gear pumps, calibrated so the aqueous continuous phase flow was […] and the organic disperse phase flow was 28 mL/min.
The aqueous continuous phase was pumped through the annulus at the center of the membrane. The organic disperse phase, held at 55° C., was pumped through the top port of the device, through the membrane pores and into the flow of continuous phase.
The resultant solution was collected in a 500 ml beaker and stirred with an overhead stirrer at 500 rpm for 10-15 minutes. The crystals were analyzed via microscopy and Jorin ViPA. The results are relayed in FIGS. 6 and 7 and Table 3.

A short description of series [2]: Particle size distribution of atorvastatin particles produced via LDC (laser diffraction). It counts as physicochemical. The procedure:
0.6 g of Atorvastatin was dissolved in 10 ml methanol in a beaker at room temperature to make up the organic phase. 0.5% HPMC (Mn 10,000) in DI water was used as the aqueous phase. The LDC was configured with a membrane with 10 μm pores, spaced 200 μm apart in a square grid, in a ring. The stirrer speed was set at […] (1750 rpm), and the organic phase injection rate set at 10 ml/min. The line was primed with organic phase and the CP was poured into the stirred cell. Addition was started and ended when 3 ml of DP was injected. The solution was left to stir until precipitation was visible. The crystals were analyzed via microscopy and Laser Diffraction (Beckmann Coulter LS-230).

Setting [3] is: volume distribution, ethanol solution 55° C. into 0.5% PVA water.
The mark [4] stands for this setting: 10 μm pores, methanol solution into 0.5% HPMC water.

The structures appear in SMILES notation.

For `C[C@]12C=CC(=O)C=C1CC[C@@H]1[C@@H]2[C@@H](O)C[C@@]2(C)[C@H]1CC[C@]2(O)C(=O)CO` [Prednisolone], in series [1], the Span is on record as 0.72 and the “Volume Mean” value was 45.73 μm. In series [1] (setting [3]), the D10 is recorded as 29.47 μm, the D50 was determined as 43.76 μm and the D90 was found to be 60.78 μm.
Regarding `CC(C)c1c(C(=O)Nc2ccccc2)c(-c2ccccc2)c(-c2ccc(F)cc2)n1CC[C@@H](O)C[C@@H](O)CC(=O)O` [Atorvastatin], the Span in series [2] turned out to be 1.66. In series [2] (10 μm pores), this compound gave a Volume Mean of 10.24 μm. In series [2] (setting [4]), this compound showed a D10 of 4.38 μm, a D50 of 8.78 μm and a D90 of 18.92 μm.
